Series [1] relates to cells of the fusion assay. In words: Cytotoxicity noted in the fusion assay. Particulars: Table 1 footnotes; one-day fusion assay. The class given is cell-based. Here is the method: Cell fusions were performed as described in Matthews et al., Proc. Natl. Acad. Sci. USA, 1987, 84, 5424-5428. MOLT-4 cells (7×10^4) were incubated with HIV-1LAI chronically infected CEM cells (10^4) in 96-well half-area flat-bottomed plates (Costar) in 100 microliters culture medium were incubated with the cell mixtures at 37° C. for 24 hours. Multinucleated syncytia were enumerated by microscopic examination of the entire contents of each well.
^d No noticeable cytotoxicity at 100 μg/mL
^e Toxic to the cells at 80 μg/mL in oneday fusion assay
^f Toxic at 40 μg/mL under the assay conditions

Series [2] concerns the target T1, HIV-1 reverse transcriptase (Human immunodeficiency virus type 1 group M subtype B, UniProt P04585).
T1 construct: virion associated HIV-1 IIIB reverse transcriptase; endogenous in cells; host or cells: HIV-1 IIIB virions lysed in Triton X-100
In words: HIV-1 reverse transcriptase assay. The class given is biochemical, HIV-1 IIIB. Particulars: Table 1; inhibit 50% of HIV-1 RT activity; read-out: HIV-RT Assay IC50. Here is the method:
Ten microliters of virion associated HIV-1 IIIB reverse transcriptase in 1% Triton X-100 was mixed with 50 microliters of a reaction cocktail containing 50 mM Tri-HCl (pH 7.8), 75 mM KCl, 2 mM dithiothreitol, 5 mM MgCl2, 5 mg/ml poly (A) [Pharmacia], 0.25 unit/ml oligo(dT)[Pharmacia]; 0.05% Nonidet P40 and 10 mCi/ml ^32 P-dTTP in the presence of various concentrations of test compound. After incubating for one hour at 37° C., 40 microliters of the reaction mixture was applied to a Schleicher & Schuell NA 45 membrane saturated with […] (0.3M NaCl, 30 mM sodium citrate, pH 7.0) in a Schleicher & Schuell Minifold over one sheet of GB003 filter paper. Each well of the minifold was washed four times with 2×SSC. Autoradiography was performed, and radioactivity was quantified with a Packard Matrix (Meriden, Conn.) 9600 direct beta counter.

Series [3] relates to HIV-1. In words: HIV-1 replication in PHA-stimulated PBMCs (p24 antigen ELISA). Also on record: TI50: unit not given beside the values. The class given is cell-based, HIV-1 (IIIB isolate). The conditions noted are these: for EC50: Human immunodeficiency virus 1, PBMC. Here is the method:
The T cell line, H9, and the promonocytic cell line, U937, were maintained separately in continuous culture with complete medium (RPMI 1640 with 10% fetal calf serum) at 5% CO2 and 37° C. The cell lines were used in experiments only when in the logarithmic phase of growth, whereas uninfected peripheral blood mononuclear cells (PBMCs) were first stimulated with PHA (1 μg/mL) for three days. All cell targets were incubated with HIV-1 (IIIB isolate, TCID50 10^4 IU/ml, at a multiplicity of infection of 0.01-0.01 IU/cell) for one hour at 37° C. and 5% CO2. The cell lines and PBMCs were washed thoroughly to remove unadsorbed virions and resuspended at 4×10^5 cells/ml in complete medium or complete medium with 10% v/v interleukin 2 (IL-2), respectively. One ml. aliquots were placed into wells of 24-well culture plates containing an equal volume of test compounds (diluted in the appropriate culture medium). The toxicity of each compound was assessed by determining the number of compound-exposed uninfected cells that remained after four days at 37° C. and 5% CO2. A p24 antigen ELISA assay was used to determine the level of virus released in the medium of the HIV-infected cultures. The p24 antigen assay used a HIV-1 anti-p24 specific monoclonal antibody as the capture antibody coated onto 96-well plates. Following a sample incubation period, rabbit serum containing antibodies for HIV-1 p24 was used to tag any p24 "captured: onto the microtiter well surface. Peroxidase conjugated goat anti-rabbit serum was then used to tag HIV-1 p24 specific rabbit antibodies that had complexed with captured p24. […] The cutoff for the p24 ELISA assay was 12.5 pg/ml. P24 in the culture medium was quantitated against a standard curve containing known amounts of p24. The effective (EC50) and inhibitory (IC50) concentrations for anti-HIV activity and cytotoxicity, respectively, were determined.
(In general: An ELISA detects its analyte on a solid surface through an enzyme-linked reagent.)

In series [4] the test system is HIV induced membrane fusion. In words: cells. The class given is cell-based, HIV-1LAI. Particulars: Human immunodeficiency virus 1, CEM-4, 24 h, read-out: Fusion Assay IC100. Here is the method: MOLT-4 cells (7×10^4) were incubated with HIV-1LAI chronically infected CEM cells (10^4) in 96-well half-area flat-bottomed plates (Costar) in 100 microliters culture medium were incubated with the cell mixtures at 37° C. for 24 hours. Multinucleated syncytia were enumerated by microscopic examination of the entire contents of each well.

The test system of series [5] is HIV-1. In words: HIV-1 replication in acutely infected H9 lymphocytes (p24 antigen ELISA). In kind it is cell-based, HIV-1 (IIIB isolate). Here is the method:
The cell lines were used in experiments only when in the logarithmic phase of growth, whereas uninfected peripheral blood mononuclear cells (PBMCs) were first stimulated with PHA (1 μg/mL) for three days. […] The cell lines and PBMCs were washed thoroughly to remove unadsorbed virions and resuspended at 4×10^5 cells/ml in complete medium or complete medium with 10% v/v interleukin 2 (IL-2), respectively. One ml. aliquots were placed into wells of 24-well culture plates containing an equal volume of test compounds (diluted in the appropriate culture medium). The toxicity of each compound was assessed by determining the number of compound-exposed uninfected cells that remained after four days at 37° C. and 5% CO2. A p24 antigen ELISA assay was used to determine the level of virus released in the medium of the HIV-infected cultures. The p24 antigen assay used a HIV-1 anti-p24 specific monoclonal antibody as the capture antibody coated onto 96-well plates. […] P24 in the culture medium was quantitated against a standard curve containing known amounts of p24. The effective (EC50) and inhibitory (IC50) concentrations for anti-HIV activity and cytotoxicity, respectively, were determined.
^a Concentration which inhibits viral replication in H9 cells by 50%

The subject of series [6] is HIV-1. Particulars: Table 1 footnote h: data from reference 8; cited from earlier work.
In a further series the test system is HIV-1 RT. The conditions noted are these: Table 1 footnote h: data from reference 8; cited from earlier work.
Series [7] concerns HIV-induced membrane fusion. As to the kind of experiment: Inhibition of HIV-induced membrane fusion / syncytia formation reported in the literature. The class given is cell-based. Particulars: versus compounds 2-5 or 8-10; CEM4 here, H9 in the literature.
The test system of series [8] is HIV-induced membrane fusion. The conditions noted are these: cited from earlier work.

Read-outs that look alike come from different tables or passages of the source.

Turning to `CC(C)[C@@H]1CC[C@]2(C(=O)O)CC[C@]3(C)[C@H](CC[C@@H]4[C@@]5(C)CC[C@H](OC(=O)CC(C)(C)CC(=O)O)C(C)(C)[C@@H]5CC[C@]43C)[C@@H]12` [Compound 9, 3-O-(3',3'-dimethylglutaryl)-dihydrobetulinic acid], the “cytotoxicity in fusion assay (footnotes d, e, f)” value in series [1] was “f (Toxic at 40 μg/mL under the assay conditions)”. The IC50 in series [2] was above 166000 nM. Besides, the EC50 with HIV-1 [3] is 0.0175 µg/mL; in the series on HIV-1 [3] (PHA-stimulated PBMCs, read-out: EC50), 29.2 nM; with HIV-1 [5] (Human immunodeficiency virus 1, H9, Table 1, inhibits viral replication in H9 cells by 50%, read-out: EC50), 5.7 nM. Moreover, the “T.I. values in PBMCs compared with H9 cells” value with HIV-1 [3] (PBMCs versus H9 cells) is “lower than those in H9 cells”. The same compound yielded a TI50 with HIV-1 [3] (Table 2, PBMCs) of 229. In series [4], the IC100 is 20 µg/mL. The T.I. in the series with HIV-1 [5] (Table 1, H9 cells, therapeutic index) is listed as 1,017.0.
With `C=C(C)[C@@H]1CC[C@]2(C(=O)NCCCCCCCC(=O)N[C@@H](CC(C)C)[C@@H](O)CC(=O)O)CC[C@]3(C)[C@H](CC[C@@H]4[C@@]5(C)CC[C@H](O)C(C)(C)[C@@H]5CC[C@]43C)[C@@H]12` [Compound 12], in the series on HIV-1 [6], the half-maximal effective concentration (EC50) was 30 nM and the T.I. is reported as above 90. In the series with HIV-1 RT, the “HIV-RT Assay IC50” value is reported as “No Inhibition”. Moreover, the “potency in inhibiting syncytia formation relative to compounds 2-5 or 8-10” value in [7] is recorded as “approximately ten”. In addition, the “Fusion Assay IC100” value in series [8] (Table 1 footnote h: data from reference 8) was 3 µg/mL. Further, in series [8] (reported in the literature, H9 cell line), the inhibit syncytia formation was 3 µg/mL.

Broadly, the IC50 is the midpoint of a concentration-inhibition curve. As usually defined, the EC50 is the midpoint of the concentration-response curve.

The values above are taken from patent publication US5679828A (priority 1995, dated 1997).
